Experimental findings from ChEMBL document CHEMBL1240454, “1,3-Dioxolane-based ligands incorporating a lactam or imide moiety: structure-affinity/activity relationship at alpha1-adrenoceptor subtypes and at 5-HT1A receptors” (Eur J Med Chem, 2010) are described below.

The target of assay [1] is T1, Alpha-1D adrenergic receptor (Rattus norvegicus) (UniProt P23944).
T1 sequence (whole entry): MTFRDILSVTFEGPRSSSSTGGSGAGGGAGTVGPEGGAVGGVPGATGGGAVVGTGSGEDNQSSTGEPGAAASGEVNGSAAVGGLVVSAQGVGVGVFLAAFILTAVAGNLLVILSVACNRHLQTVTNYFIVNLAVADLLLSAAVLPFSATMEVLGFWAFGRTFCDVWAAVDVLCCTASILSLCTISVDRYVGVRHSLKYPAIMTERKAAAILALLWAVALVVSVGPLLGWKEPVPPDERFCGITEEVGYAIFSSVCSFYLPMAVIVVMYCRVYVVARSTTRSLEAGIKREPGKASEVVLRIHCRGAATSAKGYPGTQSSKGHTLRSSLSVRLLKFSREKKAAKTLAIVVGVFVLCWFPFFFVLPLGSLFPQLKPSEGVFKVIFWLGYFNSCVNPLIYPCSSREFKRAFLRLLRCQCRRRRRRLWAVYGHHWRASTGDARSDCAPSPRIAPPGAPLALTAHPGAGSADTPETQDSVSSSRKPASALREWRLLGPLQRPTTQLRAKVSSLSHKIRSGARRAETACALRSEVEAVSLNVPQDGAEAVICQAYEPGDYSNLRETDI
Kind of assay: Antagonist activity at adrenergic Alpha-1D receptor in Wistar rat thoracic aorta assessed as inhibition of (-)-norepinephrine-induced vasocontraction treated 30 mins before (-)norepinephrine challenge. It counts as functional, tissue-based.

Assay [2] is filed under the species Rattus norvegicus. Kind of assay: Selectivity for adrenergic Alpha-1B receptor in Wistar rat spleen over adrenergic alpha1D receptor in Wistar rat thoracic aorta. It is filed as tissue-based.
In assay [3] the target is T2, Alpha-1D adrenergic receptor (Homo sapiens, UniProt P25100).
T2 sequence (P25100 whole entry): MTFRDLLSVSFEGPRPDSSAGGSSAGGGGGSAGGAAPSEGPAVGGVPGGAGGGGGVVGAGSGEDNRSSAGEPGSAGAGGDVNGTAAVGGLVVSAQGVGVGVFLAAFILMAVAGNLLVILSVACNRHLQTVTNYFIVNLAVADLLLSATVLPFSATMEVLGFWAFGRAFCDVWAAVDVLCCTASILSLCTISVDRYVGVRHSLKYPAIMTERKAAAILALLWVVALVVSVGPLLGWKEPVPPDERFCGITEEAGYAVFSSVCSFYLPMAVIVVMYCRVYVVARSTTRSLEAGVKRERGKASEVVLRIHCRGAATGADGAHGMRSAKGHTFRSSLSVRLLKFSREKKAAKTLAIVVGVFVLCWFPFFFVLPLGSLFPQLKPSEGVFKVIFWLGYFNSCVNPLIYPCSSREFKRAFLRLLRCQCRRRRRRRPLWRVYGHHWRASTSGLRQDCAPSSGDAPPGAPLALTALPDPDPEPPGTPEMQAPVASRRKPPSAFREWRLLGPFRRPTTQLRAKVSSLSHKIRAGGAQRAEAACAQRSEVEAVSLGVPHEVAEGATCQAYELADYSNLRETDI
Description: Displacement [3H]prazosin of human recombinant Alpha-1D adrenergic receptor expressed in CHO cells by rapid filtration technique

Assay [4] has as its target T3, Alpha-1A adrenergic receptor (Homo sapiens, UniProt P35348).
T3 sequence (P35348 whole entry): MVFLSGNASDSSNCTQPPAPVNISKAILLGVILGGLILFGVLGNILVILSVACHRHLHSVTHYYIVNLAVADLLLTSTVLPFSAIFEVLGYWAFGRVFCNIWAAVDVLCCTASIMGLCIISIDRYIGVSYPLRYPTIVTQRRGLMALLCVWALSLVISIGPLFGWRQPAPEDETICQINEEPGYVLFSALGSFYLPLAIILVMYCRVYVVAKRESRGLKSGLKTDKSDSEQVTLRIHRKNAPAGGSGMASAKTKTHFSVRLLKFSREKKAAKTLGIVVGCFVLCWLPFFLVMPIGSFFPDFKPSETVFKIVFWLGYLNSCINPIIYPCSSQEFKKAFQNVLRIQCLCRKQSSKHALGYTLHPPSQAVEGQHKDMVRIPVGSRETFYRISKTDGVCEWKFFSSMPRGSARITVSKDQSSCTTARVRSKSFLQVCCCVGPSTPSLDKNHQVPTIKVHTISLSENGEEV
Description: Displacement [3H]prazosin of human recombinant alpha1A adrenergic receptor expressed in CHO cells by rapid filtration technique

The species named for assay [5] is Rattus norvegicus. Kind of assay: Selectivity for adrenergic Alpha-1B receptor in Wistar rat spleen over adrenergic alpha1A receptor in Wistar rat prostatic vas deferens. It is filed as tissue-based.
The species entered for assay [6] is Rattus norvegicus. Kind of assay: Selectivity for adrenergic alpha1A receptor in Wistar rat prostatic vas deferens over adrenergic Alpha-1D receptor in Wistar rat thoracic aorta. It counts as tissue-based.
Assay [7] deals with T4, Alpha-1B adrenergic receptor (Homo sapiens, UniProt P35368).
T4 sequence (P35368 whole entry): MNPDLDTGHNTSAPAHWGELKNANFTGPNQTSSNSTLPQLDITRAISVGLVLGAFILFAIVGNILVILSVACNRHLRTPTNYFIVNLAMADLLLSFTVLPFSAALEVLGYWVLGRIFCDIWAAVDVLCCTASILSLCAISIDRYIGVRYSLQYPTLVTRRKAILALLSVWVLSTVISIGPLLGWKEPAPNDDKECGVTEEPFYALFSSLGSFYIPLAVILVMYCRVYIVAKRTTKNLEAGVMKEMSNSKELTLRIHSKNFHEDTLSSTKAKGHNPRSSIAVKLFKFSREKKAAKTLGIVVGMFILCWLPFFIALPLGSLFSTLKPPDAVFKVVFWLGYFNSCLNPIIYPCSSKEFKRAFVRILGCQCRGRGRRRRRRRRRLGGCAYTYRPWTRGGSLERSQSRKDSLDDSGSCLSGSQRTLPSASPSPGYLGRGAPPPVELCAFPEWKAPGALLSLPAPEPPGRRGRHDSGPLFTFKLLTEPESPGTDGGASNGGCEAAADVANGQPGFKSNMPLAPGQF
Description: Displacement [3H]prazosin of human recombinant Alpha-1B adrenergic receptor expressed in CHO cells by rapid filtration technique

For assay [8], the target named is T5, 5-hydroxytryptamine receptor 1A (Homo sapiens, UniProt P08908).
T5 sequence (P08908 whole entry): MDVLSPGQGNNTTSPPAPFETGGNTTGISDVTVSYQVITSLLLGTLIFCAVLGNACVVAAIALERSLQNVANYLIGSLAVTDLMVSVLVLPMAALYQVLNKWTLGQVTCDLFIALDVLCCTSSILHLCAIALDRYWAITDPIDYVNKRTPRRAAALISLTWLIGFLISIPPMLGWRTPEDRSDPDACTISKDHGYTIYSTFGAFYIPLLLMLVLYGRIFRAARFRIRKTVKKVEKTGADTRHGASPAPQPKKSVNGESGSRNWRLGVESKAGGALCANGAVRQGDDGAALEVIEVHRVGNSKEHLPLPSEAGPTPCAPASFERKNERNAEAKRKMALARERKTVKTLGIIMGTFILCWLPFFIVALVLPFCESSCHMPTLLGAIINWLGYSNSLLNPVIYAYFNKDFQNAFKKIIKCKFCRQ

SMILES strings stand for the structures.

Regarding `COc1ccccc1N1CCN(CC2OCC(c3ccccc3)(c3ccccc3)O2)CC1` (centres undefined), in assay [1], the pKb was determined as 8.14. Further, the Selectivity ratio was determined as 28 in the assay listed under Rattus norvegicus [2], 36 in the assay listed under Rattus norvegicus [5] and 0.8 in the assay filed under Rattus norvegicus [6]. The Ki is 0.813 nM in assay [3], 0.263 nM in assay [4], 6.76 nM in assay [7] and 22.9 nM in assay [8].

As to `COc1ccccc1N1CCN(C[C@H]2CO[C@@](CN3CCCCC3=O)(c3ccccc3)O2)CC1`, the negative-log Kb (pKb) in assay [1] worked out at 6.74. Also, the Selectivity ratio is 0.06 in the assay filed under Rattus norvegicus [2], 0.3 in the assay filed under Rattus norvegicus [5] and 0.3 in the assay filed under Rattus norvegicus [6]. The Ki is 14.1 nM in assay [3], 0.871 nM in assay [4], 129 nM in assay [7] and 5.25 nM in assay [8].

Turning to `COc1ccccc1N1CCN(C[C@@H]2CO[C@@](CN3C(=O)CC4(CCCC4)CC3=O)(c3ccccc3)O2)CC1` (relative stereo), the pKb in assay [1] worked out at 8.51. Also, the Selectivity ratio was found to be 11 in the assay listed under Rattus norvegicus [2], 0.7 in the assay listed under Rattus norvegicus [5] and 17 in the assay filed under Rattus norvegicus [6]. For the same molecule, the Ki in assay [3] is 1.38 nM; in assay [4], 10 nM; in assay [7], 10 nM; in assay [8] it was 1.26 nM.

For the molecule `COc1ccccc1N1CCN(C[C@H]2CO[C@](CN3CCCC3=O)(c3ccccc3)O2)CC1` (relative stereo), the negative logarithm of the Kb (pKb) in assay [1] stood at 6.79. The figures for the Selectivity ratio in the assay listed under Rattus norvegicus [2], in the assay listed under Rattus norvegicus [5] and in the assay listed under Rattus norvegicus [6] were 0.03, 0.5 and 0.07, respectively. In addition, the Ki is 13.5 nM in assay [3], 1.38 nM in assay [4], 174 nM in assay [7] and 6.92 nM in assay [8].

In the case of `COc1ccccc1N1CCN(C[C@@H]2CO[C@](CN3CCCC3=O)(c3ccccc3)O2)CC1` (relative stereo), in assay [1], the pKb amounted to 7.43. In addition, the Selectivity ratio in the assay listed under Rattus norvegicus [2] stood at 0.1; in the assay filed under Rattus norvegicus [5] it was 0.2; in the assay filed under Rattus norvegicus [6], 1. Further, the Ki in assay [3] was 5.25 nM; in assay [4], 12.6 nM; in assay [7], 70.8 nM; in assay [8], 11.2 nM.

Take `COc1ccccc1N1CCN(C[C@@H]2CO[C@@](CN3CCCCC3=O)(c3ccccc3)O2)CC1` (relative stereo): in assay [1], the pKb is 7.29. Also, the Selectivity ratio amounted to 0.1 in the assay filed under Rattus norvegicus [2], 0.1 in the assay filed under Rattus norvegicus [5] and 1 in the assay listed under Rattus norvegicus [6]. The Ki is 1.48 nM in assay [3], 11.5 nM in assay [4], 51.3 nM in assay [7] and 5.13 nM in assay [8].

For the molecule `COc1ccccc1N1CCN(C[C@H]2CO[C@@](CN3CCCCCC3=O)(c3ccccc3)O2)CC1` (relative stereo), the pKb in assay [1] is 7.57. For the same molecule, the Selectivity ratio in the assay filed under Rattus norvegicus [2] is 0.1; in the assay listed under Rattus norvegicus [5], 4; in the assay listed under Rattus norvegicus [6] it was 0.04. Moreover, the Ki in assay [3] is 4.07 nM; in assay [4], 0.631 nM; in assay [7], 72.4 nM; in assay [8], 5.62 nM.

For the molecule `COc1ccccc1N1CCN(C[C@@H]2CO[C@@](CN3CCCCCC3=O)(c3ccccc3)O2)CC1` (relative stereo), the pKb in assay [1] worked out at 7.75. Besides, the Selectivity ratio in the assay listed under Rattus norvegicus [2] came to 0.5; in the assay filed under Rattus norvegicus [5], 0.1; in the assay listed under Rattus norvegicus [6], 4. The Ki in assay [3] was 2.51 nM; in assay [4] it was 26.9 nM; in assay [7], 18.2 nM; in assay [8] it was 7.24 nM.

As for `COc1ccccc1N1CCN(C[C@H]2CO[C@@](CN3C(=O)CCC3=O)(c3ccccc3)O2)CC1` (relative stereo), the pKb in assay [1] came to 6.42. The Selectivity ratio in the assay listed under Rattus norvegicus [2] amounted to 0.2; in the assay listed under Rattus norvegicus [5], 3; in the assay filed under Rattus norvegicus [6], 0.1. The Ki is 39.8 nM in assay [3], 2.88 nM in assay [4], 85.1 nM in assay [7] and 5.13 nM in assay [8].

With `COc1ccccc1N1CCN(C[C@@H]2CO[C@@](CN3C(=O)CCC3=O)(c3ccccc3)O2)CC1` (relative stereo), the pKb in assay [1] came out at 7.78. Moreover, the Selectivity ratio in the assay filed under Rattus norvegicus [2] worked out at 5; in the assay listed under Rattus norvegicus [5] it was 2; in the assay filed under Rattus norvegicus [6], 3. Moreover, the Ki in assay [3] was 16.2 nM; in assay [4] it was 40.7 nM; in assay [7] it was 224 nM; in assay [8], 25.7 nM.

For `COc1ccccc1N1CCN(C[C@H]2CO[C@@](CN3C(=O)CCCC3=O)(c3ccccc3)O2)CC1` (relative stereo), in assay [1], the pKb is 6.19. Besides, the Selectivity ratio is 0.1 in the assay listed under Rattus norvegicus [2], 1 in the assay filed under Rattus norvegicus [5] and 0.1 in the assay filed under Rattus norvegicus [6]. For the same molecule, the Ki in assay [3] is 32.4 nM; in assay [4] it was 6.61 nM; in assay [7] it was 46.8 nM; in assay [8] it was 3.16 nM.

For the molecule `COc1ccccc1N1CCN(C[C@@H]2CO[C@@](CN3C(=O)CCCC3=O)(c3ccccc3)O2)CC1` (relative stereo), the pKb in assay [1] was found to be 7.57. In addition, the Selectivity ratio in the assay listed under Rattus norvegicus [2] amounted to 2; in the assay filed under Rattus norvegicus [5], 1; in the assay listed under Rattus norvegicus [6], 2. For the same molecule, the inhibitory constant (Ki) is 8.51 nM in assay [3], 21.4 nM in assay [4], 132 nM in assay [7] and 44.7 nM in assay [8].

For `COc1ccccc1N1CCN(C[C@H]2CO[C@@](CN3C(=O)CC4(CCCC4)CC3=O)(c3ccccc3)O2)CC1` (relative stereo), the pKb in assay [1] came out at 6.78. Besides, the Selectivity ratio was found to be 0.2 in the assay filed under Rattus norvegicus [2], 3 in the assay filed under Rattus norvegicus [5] and 0.1 in the assay listed under Rattus norvegicus [6]. Besides, the Ki in assay [3] is 4.79 nM; in assay [4], 2.04 nM; in assay [7], 9.33 nM; in assay [8], 2.63 nM.

The term pKb denotes the negative decadic logarithm of the Kb, by convention in mol/L. What is called Ki is the equilibrium dissociation constant of an inhibitor or competing ligand from its target. Lower therefore signals a stronger hold on the target.
